{"source": "BindingDB's records for PubMed 22084396", "about": "(Genentech, Inc and Exelixis)", "key": {"[1]": {"molecular_target": "3-phosphoinositide-dependent protein kinase 1, PDPK1 (Homo sapiens) (UniProt O15530)", "sequence (O15530 whole entry, looked up)": "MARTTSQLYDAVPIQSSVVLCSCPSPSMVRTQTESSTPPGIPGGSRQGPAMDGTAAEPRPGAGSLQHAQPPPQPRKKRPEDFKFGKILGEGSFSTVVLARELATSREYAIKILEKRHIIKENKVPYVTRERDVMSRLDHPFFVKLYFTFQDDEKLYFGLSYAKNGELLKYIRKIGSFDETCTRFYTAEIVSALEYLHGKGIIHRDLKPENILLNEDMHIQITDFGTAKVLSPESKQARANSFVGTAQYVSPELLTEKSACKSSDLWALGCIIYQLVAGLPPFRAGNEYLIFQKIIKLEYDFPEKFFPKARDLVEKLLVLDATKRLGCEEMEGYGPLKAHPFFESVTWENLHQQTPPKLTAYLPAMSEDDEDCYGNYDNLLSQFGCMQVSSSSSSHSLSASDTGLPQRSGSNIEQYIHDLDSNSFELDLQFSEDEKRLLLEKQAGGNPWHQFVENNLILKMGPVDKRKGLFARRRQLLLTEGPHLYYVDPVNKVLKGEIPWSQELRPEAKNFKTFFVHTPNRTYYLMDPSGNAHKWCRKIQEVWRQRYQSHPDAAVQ", "assay": "Inhibition of PDK1 (unknown origin)"}, "[2]": {"molecular_target": "Serine/threonine-protein kinase 4, STK4/MST1 (Homo sapiens) (UniProt Q13043)", "sequence (Q13043 whole entry, looked up)": "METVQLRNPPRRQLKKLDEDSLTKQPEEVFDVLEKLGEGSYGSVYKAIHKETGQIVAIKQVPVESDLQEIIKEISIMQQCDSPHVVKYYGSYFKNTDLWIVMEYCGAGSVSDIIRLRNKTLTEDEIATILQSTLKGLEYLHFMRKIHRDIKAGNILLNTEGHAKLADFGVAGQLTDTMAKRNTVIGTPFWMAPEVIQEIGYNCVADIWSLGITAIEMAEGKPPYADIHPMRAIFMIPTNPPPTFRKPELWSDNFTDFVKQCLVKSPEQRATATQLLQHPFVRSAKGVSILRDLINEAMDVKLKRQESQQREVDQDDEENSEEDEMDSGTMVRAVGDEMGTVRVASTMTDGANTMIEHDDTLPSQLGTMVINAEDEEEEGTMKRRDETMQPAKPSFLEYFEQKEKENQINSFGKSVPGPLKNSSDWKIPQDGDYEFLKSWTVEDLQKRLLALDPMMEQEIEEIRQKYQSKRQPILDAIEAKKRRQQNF", "assay": "Inhibition of MST1 (unknown origin)"}}}
{"compound": "O=C(c1ccc(F)c(F)c1Nc1ccc(I)cc1F)N1CC(O)([C@@H]2CCCCN2)C1", "values": [{"measurement": "IC50", "setting": "[1]", "result": "> 10", "unit": "µM"}, {"measurement": "IC50", "setting": "[2]", "result": "> 10", "unit": "µM"}]}
